Reference: ChEMBL document CHEMBL5226361, “Marine Sponge-Derived Alkaloid Induces Mitochondrial Dysfunction and Inhibits the PI3K/AKT/mTOR Signaling Pathway against Burkitt's Lymphoma” (J Nat Prod, 2023)
The source made the active and inactive calls. The rule behind the calls is not given here.

Experiments:
[1] = Inhibition of PI3K/AKT/mTOR signalling pathway in human Raji cells assessed as inhibition of mTOR phosphorylation incubated for 24 hrs by Western blot analysis; type: cell-based; conditions: dose 1.25-5 µM
Raji [2] = experiment: Induction of mitochondrial respiratory chain damage in human Raji cells assessed as decrease in NDUFV2 protein expression at 2.5 to 5 uM incubated for 48 hrs by Western blot analysis; type: functional, cell-based; conditions: dose 2.5-5 µM
Raji [3] = experiment: Induction of apoptosis in human Raji cells assessed as viable cells at 5 uM incubated for 24 hrs by Annexin V-FITC/PI staining based flow cytometric analysis (reference value: 97.8%); type: functional; conditions: read-out: Activity
Daudi [4] = experiment: Induction of apoptosis in human Daudi cells assessed as total apoptotic cells at 3 uM incubated for 24 hrs by Annexin-V/PI staining based flow cytometric analysis relative to control; type: functional
Daudi [5] = experiment: Induction of mitochondrial respiratory chain damage in human Daudi cells assessed as decrease in SDHA protein expression at 1.5 to 3 uM incubated for 48 hrs by Western blot analysis; type: functional, cell-based; conditions: dose 1.5-3 µM
Daudi [6] = experiment: Induction of apoptosis in human Daudi cells assessed as necrotic cells at 3 uM incubated for 24 hrs by Annexin V-FITC/PI staining based flow cytometric analysis (reference value: 1.0%); type: functional
Daudi [7] = experiment: Induction of apoptosis in human Daudi cells assessed as necrotic cells at 3 uM incubated for 24 hrs in the presence of YS49 by Annexin V-FITC/PI staining based flow cytometric analysis (reference value: 1.0%); type: functional
Daudi [8] = experiment: Induction of apoptosis in human Daudi cells assessed as upregulation of cleaved caspase-9 expression at 0.75 to 3 uM incubated for 24 hrs by Western blot analysis; type: functional, cell-based; conditions: dose 0.75-3 µM
Raji [9] = experiment: Induction of apoptosis in human Raji cells assessed as effect on cleaved caspase-8 protein expression at 1.25 to 5 uM incubated for 24 hrs by Western blot analysis; type: functional, cell-based; conditions: dose 1.25-5 µM
[10] = Inhibition of PI3K/AKT/mTOR signalling pathway in human Daudi cells assessed as inhibition of mTOR phosphorylation incubated for 24 hrs by Western blot analysis; type: cell-based; conditions: dose 0.75-3 µM
Daudi [11] = experiment: Induction of apoptosis in human Daudi cells assessed as upregulation of cleaved PARP expression at 0.75 to 3 uM incubated for 24 hrs by Western blot analysis; type: functional, cell-based; conditions: dose 0.75-3 µM
Raji [12] = experiment: Effect on total AKT protein level in human Raji cells at 1.25 to 5 uM incubated for 24 hrs by Western blot analysis; type: functional, cell-based; conditions: dose 1.25-5 µM
[13] = Inhibition of PI3K/AKT/mTOR signalling pathway in human Raji cells assessed as increase in ratio of PI3K phosphorylation to total PI3K protein level at 5 uM incubated for 12 hrs in the presence of YS49 by Western blot analysis; type: cell-based
Daudi [14] = experiment: Induction of mitochondrial dysfunction in human Daudi cells assessed as decrease in ATP-5J protein expression at 1.5 to 3 uM incubated for 48 hrs by Western blot analysis; type: functional, cell-based; conditions: dose 1.5-3 µM
Raji [15] = experiment: Induction of apoptosis in human Raji cells assessed as early apoptotic cells at 5 uM incubated for 24 hrs by Annexin V-FITC/PI staining based flow cytometric analysis (reference value: 0.8%); type: functional
Daudi [16] = experiment: Induction of mitochondrial dysfunction in human Daudi cells assessed as decrease in ATP-5H protein expression at 1.5 to 3 uM incubated for 48 hrs by Western blot analysis; type: functional, cell-based; conditions: dose 1.5-3 µM
Raji [17] = experiment: Induction of apoptosis in human Raji cells assessed as early apoptotic cells at 5 uM incubated for 24 hrs in the presence of YS49 by Annexin V-FITC/PI staining based flow cytometric analysis (reference value: 0.8%); type: functional
Raji [18] = experiment: Induction of cell cycle arrest in human Raji cells assessed as G2 phase cells at 5 uM incubated for 48 hrs by PI staining based flow cytometry analysis (reference value: 10.06%); type: functional
Daudi [19] = experiment: Induction of apoptosis in human Daudi cells assessed as nuclear condensation incubated for 24 hrs by Hoechst 33258/PI staining based fluorescence microscopic analysis; type: functional, cell-based; conditions: dose 0.75-3 µM
Daudi [20] = experiment: Induction of apoptosis in human Daudi cells assessed as effect on Bax protein expression at 0.75 to 3 uM incubated for 24 hrs by Western blot analysis; type: functional, cell-based; conditions: dose 0.75-3 µM
Raji [21] = experiment: Induction of apoptosis in human Raji cells assessed as upregulation of cytochrome C expression at 1.25 to 5 uM incubated for 24 hrs by Western blot analysis; type: functional, cell-based; conditions: dose 1.25-5 µM
Raji [22] = experiment: Induction of apoptosis in human Raji cells assessed as upregulation of cleaved caspase-9 expression at 1.25 to 5 uM incubated for 24 hrs by Western blot analysis; type: functional, cell-based; conditions: dose 1.25-5 µM
Daudi [23] = experiment: Induction of apoptosis in human Daudi cells assessed as early apoptotic cells at 3 uM incubated for 24 hrs in the presence of YS49 by Annexin V-FITC/PI staining based flow cytometric analysis (reference value: 1.7%); type: functional
Daudi [24] = experiment: Induction of cell cycle arrest at G0/G1 phase in human Daudi cells assessed as downregulation of CDK2 protein expression at 0.75 to 3 uM incubated for 24 to 48 hrs by Western blot analysis; type: functional, cell-based; conditions: dose 0.75-3 µM, time 24-48 hrs
Daudi [25] = experiment: Induction of apoptosis in human Daudi cells assessed as upregulation of cleaved caspase-3 expression at 0.75 to 3 uM incubated for 24 hrs by Western blot analysis; type: functional, cell-based; conditions: dose 0.75-3 µM
Raji [26] = experiment: Induction of mitochondrial respiratory chain damage in human Raji cells assessed as decrease in SDHA protein expression at 2.5 to 5 uM incubated for 48 hrs by Western blot analysis; type: functional, cell-based; conditions: dose 2.5-5 µM
Daudi [27] = experiment: Induction of apoptosis in human Daudi cells assessed as downregulation of Mcl-1 expression at 0.75 to 3 uM incubated for 24 hrs by Western blot analysis; type: functional, cell-based; conditions: dose 0.75-3 µM
Raji [28] = experiment: Downregulation of c-Myc expression level in human Raji cells incubated for 24 hrs by Western blot analysis; type: functional, cell-based; conditions: dose 1.25-5 µM
Raji [29] = experiment: Induction of apoptosis in human Raji cells assessed as downregulation of BCL-XL expression at 1.25 to 5 uM incubated for 24 hrs by Western blot analysis; type: functional, cell-based; conditions: dose 1.25-5 µM
Raji [30] = experiment: Induction of cell cycle arrest at G0/G1 phase in human Raji cells assessed as upregulation of p21 protein expression at 1.25 to 5 uM incubated for 24 to 48 hrs by Western blot analysis; type: functional, cell-based; conditions: dose 1.25-5 µM, time 24-48 hrs
Raji [31] = experiment: Induction of cell cycle arrest in human Raji cells assessed as S phase cells at 5 uM incubated for 48 hrs by PI staining based flow cytometry analysis (reference value: 69.78%); type: functional
Raji [32] = experiment: Antiproliferative activity against human Raji cells assessed as inhibition of cell growth incubated for 48 hrs by CCK-8 assay; type: functional, cell-based
Daudi [33] = experiment: Antiproliferative activity against human Daudi cells assessed as inhibition of cell growth incubated for 48 hrs by CCK-8 assay; type: functional, cell-based
Daudi [34] = experiment: Induction of apoptosis in human Daudi cells assessed as downregulation of Bcl-xl expression at 0.75 to 3 uM incubated for 24 hrs by Western blot analysis; type: functional, cell-based; conditions: dose 0.75-3 µM
Raji [35] = experiment: Induction of mitochondrial dysfunction in human Raji cells assessed as decrease in ATP content incubated for 24 hrs by CellTiter-Lumi […] assay; type: functional, cell-based; conditions: dose 1.25-5 µM
Raji [36] = experiment: Induction of cell cycle arrest in human Raji cells assessed as accumulation of cells at G0/G1 phase at 5 uM incubated for 48 hrs by PI staining based flow cytometry analysis (reference value: 20.16%); type: functional

IC50 (Raji [32]): 2.07 µM | IC50 (Daudi [33]): 3.48 µM
Structure (SMILES): COc1c(OC)c2c3c(nccc3c1-c1cc(C)cc(C)c1)C(c1cc(C)cc(C)c1)=CN2
inhibition [1]: Dose-Dependent Effect | Activity (Raji [2]): Active | viability at 5 µM (Raji [3]): 56.2% | Activity (Daudi [4]): 21.6% | Activity (Daudi [5]): Active | Activity (Daudi [6]): 2.2% | Activity (Daudi [7]): 1.7% | Activity (Daudi [8]): Active | Activity (Raji [9]): inactive | inhibition [10]: Dose-Dependent Effect | Activity (Daudi [11]): Active | Activity (Raji [12]): inactive | inhibition [13]: inactive | Activity (Daudi [14]): Active | Activity (Raji [15]): 21.7% | Activity (Daudi [16]): Active | Activity (Raji [17]): 11.2% | Activity (Raji [18]): 9.61% | Activity (Daudi [19]): Dose-Dependent Effect | Activity (Daudi [20]): inactive | Activity (Raji [21]): Active | Activity (Raji [22]): Active | Activity (Daudi [23]): 16.7% | Activity (Daudi [24]): Active | Activity (Daudi [25]): Active | Activity (Raji [26]): Active | Activity (Daudi [27]): Active | Activity (Raji [28]): Dose-Dependent Effect | Activity (Raji [29]): Active | Activity (Raji [30]): Active | Activity (Raji [31]): 49.74% | Activity (Daudi [34]): Active | Activity (Raji [35]): Dose-Dependent Effect | Activity (Raji [36]): 40.65%
